# Reference: US5637586A, “Benzimidazolesulfonamide derivatives and pharmaceutical composition” (Kureha Chemical Industry Co., Ltd., priority 1994, dated 1997)
# Tests used:
# [1] = test system: angiotensin II receptor subtype 1 (AT1); experiment: Binding to receptors: inhibition of radioligand (3H-angiotensin II) binding to AT1; conditions: rabbit adrenal glands, tracer 3H-angiotensin II, displacer DuP753, room temperature
# Protocol: (§1) In this Example, the affinity to the angiotensin II receptor subtype 1 or subtype 2 was evaluated by a binding assay in accordance with the method described in Biochem. Pharmacol., 33, 4057-4062 (1984).
# (§2) Specifically, the measurement of the total binding in the presence of each drug was performed as follows:
# (§3) A mixture (final volume=0.25 ml) of a drug in a given concentration (the drug was dissolved in dimethylsulfoxide, and diluted to a double volume with a buffer attached to a drug discovery system to prepare a sample for the assay; 0.025 ml), a tracer (0.025 ml), and receptors (0.2 ml) was incubated [in the case of the angiotensin II receptor subtype 1 (AT1), at room temperature for 3 hours, and in the case of the subtype 2 (AT2), at 37° C. for 1 hour]. Then, the reaction mixture was filtered with suction (GF/C filter was used in AT1, and GF/B filter was used in AT2). The filter papers after filtration with suction (the tracer bound to the receptors) were counted by a γ-wellcounter (ARC-500, Aloka). The non-specific bindings were measured by repeating the above method, except that a large excess amount of a displacer was added. The specific binding of the drug in the given concentration was calculated by subtracting the non-specific binding from the total binding, respectively. […]
# [2] = test system: angiotensin II receptor subtype 2 (AT2); experiment: Binding to receptors: inhibition of radioligand (125I-Tyr4-angiotensin II) binding to AT2; conditions: bovine cerebellar cortex, tracer 125I-Tyr4-angiotensin II, displacer angiotensin II (human), 37° C., 1 hour
# Protocol: as §1, §2, §3
"Binding inhibition % in 1 μM, AT1 [1] [%]","Binding inhibition % in 1 μM, AT2 [2] [%]",Compound
100,0,"CCCCc1nc2ccc(S(=O)(=O)N3CCOCC3)cc2n1Cc1ccc(-c2ccccc2-c2nn[nH]n2)cc1 [Compound No. 1, 4-[[2-n-butyl-1-[2'-[(1H-tetrazol-5-yl)biphenyl-4-yl]methyl]benzimidazol-6-yl]sulfonyl]morpholin]"
95,0,"CCCCc1nc(Cl)c(CO)n1Cc1ccc(-c2ccccc2-c2nnn[nH]2)cc1 [DuP753, 2-butyl-4-chloro-5-(hydroxymethyl)-1-[[2'-(1H-tetrazol-5-yl)biphenyl-4-yl]methyl]imidazole]"
